Experiments:
IRAK4 = IRAK4 (Homo sapiens, UniProt Q9NWZ3); assay: Dundee protein kinase screen; format: biochemical; settings: IRAK4, 1µM; read-out: %Remaining activity at 1µM NU6300
Description: (§1) Prior to determining its cellular activity, we carried out a screen to assess its selectivity against a panel of 131 protein kinases under conditions that would not distinguish between a reversible or irreversible mode of action. […] These 13 kinases and 29 additional kinases, selected for their known sensitivity to other inhibitors within the purine series, were then tested in a modified screening format in which the assay was repeated following a 4-hr pre-incubation (Table S3B). […] However, conformational flexibility around the active site may promote such an interaction with a residue from another part of the structure ([Martin et al., 2012]).
(§2) Table S3, Related to Figure 4. NCL-0006300 protein kinase selectivity. (A) NU6300 was tested at a single concentration of 1µM against 131 protein kinases present in a Dundee protein kinase screen (Bain et al., 2007). Values given are % activity remaining and are the average of duplicate measurements: 0-25% (red), 26-50% (yellow), 51-80% (black) and above 81% (green). The kinase domain sequences (as defined by UniProt) of […]
(§3) have a lysine residue at a position close to CDK2 Lys88 or Lys89. However, in the structure of tyrosine-protein kinase BTK (PDB ID: 3GEN) the residue equivalent to CDK2 Asp86 is Cys481 and therefore there is the potential for a covalent adduct to be formed through this side chain. […]

MELK = MELK (Homo sapiens, UniProt Q14680); assay: Dundee protein kinase screen; format: biochemical; settings: read-out: %Remaining activity at 1µM NU6300
Description: as §1, §2, §3

JNK1 = JNK1 (Homo sapiens, UniProt P45983); assay: Dundee protein kinase screen; format: biochemical; settings: JNK1, 1µM; read-out: %Remaining activity at 1µM NU6300
Description: as §1, §2, §3

JNK3 = JNK3 (Homo sapiens, UniProt P53779); assay: Dundee protein kinase screen; format: biochemical; settings: JNK3, 1µM; read-out: %Remaining activity at 1µM NU6300
Description: as §1, §2, §3

JNK2 = JNK2 (Homo sapiens, UniProt P45984); assay: Dundee protein kinase screen; format: biochemical; settings: JNK2, 1µM; read-out: %Remaining activity at 1µM NU6300
Description: as §1, §2, §3

IRR = IRR (Homo sapiens, UniProt P14616); assay: Dundee protein kinase screen; format: biochemical; settings: read-out: %Remaining activity at 1µM NU6300
Description: as §1, §2, §3

CDK2^K89V = biological target: T1, CDK2^K89V (Homo sapiens, UniProt P24941, K89V); assay: ESI-MS of covalent adduct, mutant; settings: CDK2^K89V/cyclin A, overnight incubation
T1 construct: GST (N, cleaved yes); made in house; host or cells: Escherichia coli; phosphorylated in vitro by GST-CAK
Description: (§4) These residues were individually mutated to an alanine, glutamate, or valine, respectively, and the resulting mutant CDK2/cyclin A complexes were analyzed by ESI-MS following overnight incubation with either NU6300 (exact mass 413.15) or DMSO (Figure S2 and Table S1).
(§5) Figure S2, Related to Figure 3. Identification of the site of CDK2 modification by NU6300. (A-G) Single site CDK2 mutants CDK2D86A, CDK2K88E, and CDK2K89V identify the site of CDK2 modification by NU6300. These mutations change the CDK2 sequence to that of CDK7 and are known not to disrupt the CDK2 fold. Mass spectra of CDK2 mutants:
(§6) (A), (D), CDK2D86A/cyclin A; (B), (E), CDK2K88E/cyclin A; (C), (F), CDK2K89V/cyclin A (3 mg/mL) pre-incubated overnight in the absence/presence of NU6300. (A-C), positive controls, CDK2/cyclin A mutants assayed in the absence of NU6300; (D-F), CDK2/cyclin A mutants pre-incubated with NU6300. For each mutant, the experimentally determined and […]
(§7) (G) Protein kinase activity of authentic CDK2 and single site CDK2 mutants following incubation with NU6300 or NU6310. Samples were taken at the indicated number of minutes after initiation of the reaction. Note that compared to authentic CDK2, the single site Lys88 and Lys89 mutants have a slower rate of reaction (Compare LHS panels). […]

CDK2^D86A = biological target: T2, CDK2^D86A (Homo sapiens, UniProt P24941, D86A); assay: ESI-MS of covalent adduct, mutant; settings: CDK2^D86A/cyclin A, overnight incubation
T2 construct: GST (N, cleaved yes); made in house; host or cells: Escherichia coli; phosphorylated in vitro by GST-CAK
Description: as §4, §5, §6, §7

JNK3, sequence (P53779 whole entry): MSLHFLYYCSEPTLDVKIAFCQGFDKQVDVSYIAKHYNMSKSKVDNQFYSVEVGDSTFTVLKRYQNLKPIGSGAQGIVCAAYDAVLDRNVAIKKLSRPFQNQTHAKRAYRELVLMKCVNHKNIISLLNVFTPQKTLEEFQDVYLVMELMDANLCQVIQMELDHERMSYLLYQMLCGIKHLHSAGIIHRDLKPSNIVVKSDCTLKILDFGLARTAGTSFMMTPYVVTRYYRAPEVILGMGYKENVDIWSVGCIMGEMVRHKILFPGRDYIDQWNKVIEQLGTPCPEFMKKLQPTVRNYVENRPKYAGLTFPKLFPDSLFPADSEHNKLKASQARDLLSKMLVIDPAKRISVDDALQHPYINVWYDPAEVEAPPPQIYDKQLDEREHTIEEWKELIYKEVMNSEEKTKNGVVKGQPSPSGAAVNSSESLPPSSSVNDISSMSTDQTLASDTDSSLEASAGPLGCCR
MELK, sequence (Q14680 whole entry): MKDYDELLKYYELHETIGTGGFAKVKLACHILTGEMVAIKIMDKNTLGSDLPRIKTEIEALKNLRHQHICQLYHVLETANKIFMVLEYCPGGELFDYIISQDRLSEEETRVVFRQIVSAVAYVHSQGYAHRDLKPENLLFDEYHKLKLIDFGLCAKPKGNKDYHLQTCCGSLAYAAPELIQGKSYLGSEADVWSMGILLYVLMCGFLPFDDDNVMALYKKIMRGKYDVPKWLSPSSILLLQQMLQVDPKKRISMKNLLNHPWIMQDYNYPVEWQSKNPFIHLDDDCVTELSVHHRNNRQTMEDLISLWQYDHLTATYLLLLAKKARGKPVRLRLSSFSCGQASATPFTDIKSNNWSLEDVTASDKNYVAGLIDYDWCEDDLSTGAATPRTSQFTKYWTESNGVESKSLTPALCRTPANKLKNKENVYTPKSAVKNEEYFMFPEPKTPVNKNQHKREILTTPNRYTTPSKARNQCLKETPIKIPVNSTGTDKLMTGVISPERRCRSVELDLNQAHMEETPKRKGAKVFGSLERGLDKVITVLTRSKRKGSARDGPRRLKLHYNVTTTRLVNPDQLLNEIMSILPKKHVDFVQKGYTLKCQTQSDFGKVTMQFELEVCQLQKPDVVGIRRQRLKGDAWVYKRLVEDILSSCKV
IRAK4, sequence (Q9NWZ3 whole entry): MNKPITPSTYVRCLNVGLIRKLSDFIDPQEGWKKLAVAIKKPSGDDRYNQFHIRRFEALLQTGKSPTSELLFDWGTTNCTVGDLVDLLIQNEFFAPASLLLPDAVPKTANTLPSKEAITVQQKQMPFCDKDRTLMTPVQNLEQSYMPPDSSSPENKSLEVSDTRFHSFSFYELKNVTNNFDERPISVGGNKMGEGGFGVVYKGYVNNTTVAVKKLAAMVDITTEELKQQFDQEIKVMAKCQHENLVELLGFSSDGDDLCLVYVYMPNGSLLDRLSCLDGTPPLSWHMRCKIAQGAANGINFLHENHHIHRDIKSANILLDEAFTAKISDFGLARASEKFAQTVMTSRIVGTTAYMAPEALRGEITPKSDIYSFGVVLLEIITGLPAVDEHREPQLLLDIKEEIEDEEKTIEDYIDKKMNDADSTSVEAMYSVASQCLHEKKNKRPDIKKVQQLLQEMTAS
JNK2, sequence (P45984 whole entry): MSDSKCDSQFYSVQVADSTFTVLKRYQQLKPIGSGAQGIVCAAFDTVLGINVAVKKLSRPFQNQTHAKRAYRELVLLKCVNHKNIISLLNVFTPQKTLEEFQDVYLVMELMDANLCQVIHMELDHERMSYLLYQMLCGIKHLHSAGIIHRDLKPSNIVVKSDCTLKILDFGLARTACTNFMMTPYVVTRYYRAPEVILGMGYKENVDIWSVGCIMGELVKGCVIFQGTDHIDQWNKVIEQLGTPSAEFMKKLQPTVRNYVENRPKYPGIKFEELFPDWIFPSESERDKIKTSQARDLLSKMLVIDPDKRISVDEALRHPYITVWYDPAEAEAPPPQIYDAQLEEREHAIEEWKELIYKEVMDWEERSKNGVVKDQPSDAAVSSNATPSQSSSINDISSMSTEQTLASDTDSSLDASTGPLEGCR
IRR, sequence (P14616 27-1297): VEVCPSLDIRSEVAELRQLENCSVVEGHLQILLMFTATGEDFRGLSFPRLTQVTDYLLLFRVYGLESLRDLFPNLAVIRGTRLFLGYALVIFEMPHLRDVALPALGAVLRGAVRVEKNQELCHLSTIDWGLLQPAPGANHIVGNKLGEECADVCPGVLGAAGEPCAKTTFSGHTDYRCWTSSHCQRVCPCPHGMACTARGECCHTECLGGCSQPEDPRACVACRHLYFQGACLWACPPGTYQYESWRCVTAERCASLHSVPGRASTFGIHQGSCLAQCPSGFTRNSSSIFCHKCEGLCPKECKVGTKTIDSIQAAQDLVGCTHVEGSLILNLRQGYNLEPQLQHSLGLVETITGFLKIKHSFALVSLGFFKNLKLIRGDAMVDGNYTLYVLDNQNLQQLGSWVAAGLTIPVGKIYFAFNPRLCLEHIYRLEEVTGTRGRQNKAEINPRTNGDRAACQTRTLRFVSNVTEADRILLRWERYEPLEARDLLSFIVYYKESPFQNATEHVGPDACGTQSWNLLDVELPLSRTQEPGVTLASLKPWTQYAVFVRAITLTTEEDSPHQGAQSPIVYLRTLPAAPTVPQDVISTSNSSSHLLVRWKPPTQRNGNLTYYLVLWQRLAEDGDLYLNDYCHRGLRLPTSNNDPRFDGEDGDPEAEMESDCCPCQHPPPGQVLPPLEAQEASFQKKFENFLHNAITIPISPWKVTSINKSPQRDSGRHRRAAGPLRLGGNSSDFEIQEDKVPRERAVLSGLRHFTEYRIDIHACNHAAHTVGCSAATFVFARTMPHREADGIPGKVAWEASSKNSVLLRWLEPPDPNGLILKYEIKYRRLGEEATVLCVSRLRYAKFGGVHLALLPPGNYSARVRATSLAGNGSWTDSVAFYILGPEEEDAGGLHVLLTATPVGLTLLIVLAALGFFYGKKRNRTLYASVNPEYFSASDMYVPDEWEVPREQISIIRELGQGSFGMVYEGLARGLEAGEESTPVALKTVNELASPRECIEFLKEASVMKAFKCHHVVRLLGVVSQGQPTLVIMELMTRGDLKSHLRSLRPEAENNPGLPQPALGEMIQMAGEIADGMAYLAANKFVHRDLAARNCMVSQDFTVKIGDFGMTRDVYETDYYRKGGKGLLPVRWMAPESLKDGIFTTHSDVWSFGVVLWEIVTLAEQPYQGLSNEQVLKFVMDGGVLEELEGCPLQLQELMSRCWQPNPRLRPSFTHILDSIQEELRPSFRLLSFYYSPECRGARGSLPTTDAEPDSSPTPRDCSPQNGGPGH
JNK1, sequence (P45983 whole entry): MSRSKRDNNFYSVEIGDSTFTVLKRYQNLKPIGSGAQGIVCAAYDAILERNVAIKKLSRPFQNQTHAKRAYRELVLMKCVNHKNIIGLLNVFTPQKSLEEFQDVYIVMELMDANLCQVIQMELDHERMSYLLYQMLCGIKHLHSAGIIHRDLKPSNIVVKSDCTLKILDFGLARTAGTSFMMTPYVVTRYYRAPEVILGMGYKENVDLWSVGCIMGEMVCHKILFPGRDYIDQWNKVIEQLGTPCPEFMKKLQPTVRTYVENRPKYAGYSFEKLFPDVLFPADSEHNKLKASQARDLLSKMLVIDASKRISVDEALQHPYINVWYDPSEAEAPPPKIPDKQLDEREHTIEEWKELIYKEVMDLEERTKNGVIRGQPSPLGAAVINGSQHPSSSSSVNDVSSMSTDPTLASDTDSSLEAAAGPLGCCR

C=CS(=O)(=O)c1ccc(Nc2nc(OCC3CCCCC3)c3nc[nH]c3n2)cc1 [NU6300, 6-(cyclohexylmethoxy)-N-(4-(vinylsulfonyl)phenyl)-9H-purin-2-amine]
remaining activity at 1 µM (IRAK4): 78%
remaining activity at 1 µM (MELK): 55%
remaining activity at 1 µM (JNK1): 60%
remaining activity at 1 µM (JNK3): 37%
remaining activity at 1 µM (JNK2): 88%
remaining activity at 1 µM (IRR): 32%
mass added to major CDK2 species (ESI-MS) (CDK2^K89V): no additional mass
mass added to major CDK2 species (ESI-MS) (CDK2^D86A): 414 Da

Source: article PMC4579270, “Identification and Characterization of an Irreversible Inhibitor of CDK2” (Chemistry & Biology, 2015)
